Assays:
[1] = Inhibition of acyl-coA cholesterol O-acyltransferase (unknown origin); set-up: species or system Homo sapiens
[2] = test system: Mus musculus; assay: Anti-inflammatory activity in Mus musculus (mouse) assessed as inhibition of arachidonic acid-induced ear edema at 30 umol/kg, po relative to control; assay type: functional
[3] = Half life in Rattus norvegicus (rat); assay type: ADME, organism-based; details: in vivo
[4] = test system: Thoracic aorta; assay: Inodilatory activity in Wistar Rattus norvegicus (rat) thoracic aorta assessed as inhibition of phenylephrine-induced contraction; assay type: functional, tissue-based

In the case of `CCCCCCn1nc(-c2ccccc2)c(-c2ccccc2)cc1=O`, the IC50 [1] is reported as 57 µM.

For `CCOc1ccc(C2=NN(CCCCOc3ccc(C4=NNC(=O)CC4C)cc3)C(=O)C3CC=CCC23)cc1OCC` (stereo not given), the inhibition in vivo at 30 µmol/kg [2] was 46%.

With `O=C(O)COc1cccc2c1CC[C@H](Cn1nc(C(c3ccccc3)c3ccccc3)ccc1=O)C2` the half-life [3] was 4.3 h.

`CS(=O)(=O)Nc1ccc(C2=NN(c3ccccc3)C(=O)CC2)cc1` showed an IC50 [4] of 0.08 µM.

`COc1ccc(C2=NN(CCCCOc3ccc(C4=NNC(=O)CC4C)cc3)C(=O)C3CC=CCC23)cc1Cl` (stereo not given) gave an inhibition in vivo at 30 µmol/kg [2] of 46%.
